Experimental data as given in patent US10213449B2, “Compositions and methods for treating medulloblastoma” (The Board of Trustees of the Leland Stanford Junior …, priority 2016, dated 2019).
“Also recorded” adds a separate entry of the source.

Tests used:
[1] = tested on: MB cell lines (MB55, MB21, MB53); assay: Cell viability of MB cell lines (CellTiter-Glo); assay type: cell-based, mouse; conditions: multiple MB cell lines derived from Ptch1+/− and Ptch1+/−; Trp53−/− mice
Experimental: Ptch+/−MB cell lines MB55 and MB21 were kindly gifted from Dr. Rosalind Segal (Dana Farber Cancer Institute, Harvard Medical School) and Ptch^+/−; p53^−/− MB53 cells were kindly gifted from Charles Rudin (Memorial Sloan-Kettering Cancer Center). All cell lines were validated for high Gli activity. Cell viability was assessed using CellTiter-Glo (G7573, Promega, WI, USA) according to the manufacturers instructions. Cells were plated at 10000 cells/well in 96-well plates, treated with drugs as indicated and data was collected on a TECAN Infinite 200 plate reader.

[2] = tested on: Hh signaling in NIH 3T3 cells exposed to Shh; assay: RT-qPCR of Hh target transcripts in Shh-stimulated NIH 3T3 cells; assay type: cell-based, mouse; conditions: SHH ligand-induced NIH 3T3 cells; as early as 4 h post exposure
Experimental: (§1) NIH3T3s or SUFU−/− MEFs were plated in 6 well plates at 400,000 cells/well in 10% FBS media constituted of DMEM (Invitrogen11960-069) supplemented with 10% FBS (Hyclone Labs SH30070.02), pen/strep (Life Technologies 15140-122), sodium pyruvate (Invitrogen 11360-070) and glutamax (Invitrogen 35050-061). Cells were then starved in 0.5% FBS for 24 h prior to treatment with 25% ShhN conditioned media in 0.5% FBS+/− drug treatment. GliΔN were treated 48 h post transfection. Unless otherwise stated, all treatments were performed for 6 h. Cell lysis and RNA extraction was performed using Qiashredder homogenizers (Qiagen 79654) and RNEasy mini kits (qiagen 74104) as per manufacturer's instructions. RNA was quantified on a nanodrop spectrophotometer (nanoddrop technologies ND-2000C). Transcript quantification was performed using a TaqMan RNA-to-Ct 1-Step Kit (Life technologies, 4392656) and the Applied Biosystems 7500 RT-PCR system as per the manufacturer's instructions. All primers were commercially available TaqMan® Gene Expression Assay probes purchased from Life Technologies (csnk2a1: Mm00786779_s1, csnk2a2: Mm01243455_m1, csnk2b: Mm00487216_m1, Gli1: Mm00494654_m1, Gli2: Mm.273292, Ccnd1: Mm.273049, Ptch: Mm00436047_m1).

[3] = tested on: Medulloblastoma cell lines (MB53, MB55 and MB21 cells); assay: Acquired resistance in medulloblastoma cell lines; assay type: cell-based, mouse; conditions: CX-4945 10 uM
Experimental: Medulloblastoma cell lines (MB53, MB55 and MB21 cells) were cultured in Neurobasal (Life Technologies 10888-022)+B27 supplement (Invitrogen 17504044)+DMSO (0.1%), CX-4945 (10 uM) or TBB (50 uM). […] Primer sequences are provided in supplemental table 5.

[4] = tested on: Ptch+/−; Trp53−/−; SmoD477G MB intracranial allografts; assay: Intracranial allograft survival study; assay type: in vivo, mouse; conditions: CX-4945 75 mg/kg PO BID vs vehicle control
Experimental: Ptch+/−; Tpr53−/−; SmoD477G were suspended in sterile PBS to an adjusted final volume of at 80,000 cells/2 uL injection. Mice were anesthetized and fixed to a stereotactic frame and the head was sterilized. A small sagittal incision was made in the mouse's scalp to expose the area surrounding lambda. The skull was sterilized a 0.7 mm drill bit was used to create a midline hole located 2 mm down from lambda. A Hamilton syringe with affixed 26 g needle was lowered to a depth of ˜3 mm then withdraw to 2.75 mm before injecting 2 uL (80,000) cells at 0.5 ul/min. The drill hole was closed with a thin slip of bone wax and the wound was closed. […] Corn oil was used as vehicle for both CX-4945 and DMSO. Weight, morbidity and survival were measured by a blinded collaborator. Kaplan-meyer survival curves were generated using GraphPad Prism and significance was measured by Logrank Mantel-Cox test.

[5] = tested on: Ptch+/−; Tpr53−/−; SmoD477G MB flank allografts; assay: Flank allograft study, SMO inhibitor-resistant MB; assay type: in vivo, mouse; conditions: TBB 30 mg/kg IP BID or GDC-0449 37.5 mg/kg IP BID vs vehicle control
Experimental: In vivo efficacy studies were performed in accordance with protocols approved by the Institutional Animal Care and Use Committee at Stanford University. SmoWT-MB and Smo[…]-MB cells isolated from either parental SmoWT or Smo[…] mouse Ptch^+/-; p53^-/- MB hind-flank allografts were kindly provided by Charles Rudin (Memorial Sloan-Kettering Cancer Center). Ptch+/-; Tpr53-/-, or, Ptch+/-; Tpr53-/-; Smo[…] MB cells were mixed 1:1 with matrigel and 10^7 cells were injected into both flanks of a Nu/Nu mouse. Once tumors reached 225-275 mm^3, mice were randomized to treatment vs. control groups. Treatment groups received 30 mg/kg IP BID of TBB (reconstituted in DMSO at 50 ug/uL), or 37.5 mg/kg IP BID of GDC-0449 (reconstituted in DMSO at 62.5 ug/uL). Control mice were treated with an equivalent volume of DMSO. Corn oil was used in all groups to a total volume of 180 uL/injection and all doses were given with a 28 g insulin syringe. Tumors were measured and mice were weighed daily. Once tumors reached 1.5 cm^2 or met institutional euthanasia criteria, mice were sacrificed and tumors were harvested. Growth curves were generated using GraphPad Prism and significance was measured by two-way ANOVA.

[6] = tested on: Hh signaling in Sufu−/− mouse embryonic fibroblasts; assay: RT-qPCR of Gli1 in Sufu−/− MEFs (epistasis study); assay type: cell-based
Excerpt: (§2) Epistasis studies were next performed to determine where in the hedgehog pathway CK2 acts. The effect of TBB was examined: (i) in NIH 3T3s stimulated with SAG, a SMO agonist, (ii) in Sufu−/− mouse embryonic fibroblasts (MEF), and (iii) in NIH 3T3 cells overexpressing GLI2 (FIG. 3d-3f).
Sufu^−/− MEFs (conditional deletion of exons 4-8) were kindly provided by Pao-Tien Chang (UCSF). SAG (S7779), GDC-0449 (Vismodegib, S1082) and CX-4945 (Silmitasertib, S2248) was purchased from SelleckChem.com. TBB was purchased from EMD (218697). Shh-N conditional medium was made using a HEK 293 cell line that stably secretes ShhN as previously described. Myc-GL12-DN (17649, pCS2-MT-GLI2-deltaN) plasmid was purchased from Addgene (Cambridge, Mass., USA). […]
NIH3T3s or SUFU−/− MEFs were plated in 6 well plates at 400,000 cells/well in 10% FBS media constituted of DMEM (Invitrogen11960-069) supplemented with 10% FBS (Hyclone Labs SH30070.02), pen/strep (Life Technologies 15140-122), sodium pyruvate (Invitrogen 11360-070) and glutamax (Invitrogen 35050-061). […] RNA was quantified on a nanodrop spectrophotometer (nanoddrop technologies ND-2000C). Transcript quantification was performed using a TaqMan RNA-to-Ct 1-Step Kit (Life technologies, 4392656) and the Applied Biosystems 7500 RT-PCR system as per the manufacturer's instructions. […]

[7] = tested on: Hh signaling in NIH 3T3s stimulated with SAG; assay: RT-qPCR of Gli1 in NIH 3T3s stimulated with SAG (epistasis study); assay type: cell-based, mouse; conditions: NIH 3T3s, SAG treated groups
Experimental: as §2
as §1, with “All primers were commercially available TaqMan® Gene Expression Assay probes purchased from Life Technologies (csnk2a1: Mm00786779_s1, csnk2a2: Mm01243455_m1, csnk2b: Mm00487216_m1, Gli1: Mm00494654_m1, Gli2: Mm.273292, Ccnd1: Mm.273049, Ptch: Mm00436047_m1).” left out

For `O=C(O)c1ccc2c(c1)nc(Nc1cccc(Cl)c1)c1ccncc12` [CX-4945, 5-(3-Chloroanilino)benzo[c][2,6]naphthyridine-8-carboxylic acid], which cell viability [1] is on record?
The cell viability was “decreased; also recorded: dose dependent tumoricidal effects”.

And the “Gli1 mRNA levels” value [2]?
The value was “inhibited; also recorded: loss of Gli1 induction”.

And the “surviving cells after 2 weeks of culture with drug” value [3]?
Its value is “only control treated (DMSO) and MB55 TBB treated (50 uM) cells remained”.

And the “survival (Kaplan-Meier) of mice harboring intracranial allografts” value [4]?
The value was “significant increase in survival”.

With `CS(=O)(=O)c1ccc(C(=O)Nc2ccc(Cl)c(-c3ccccn3)c2)c(Cl)c1` [GDC-0449, 2-chloro-N-(4-chloro-3-pyridin-2-ylphenyl)-4-methylsulfonylbenzamide] as the compound, how does the “Gli1 mRNA levels” value [2] read?
Its value is “loss of Gli1 induction”.

And the “tumor growth of SmoD477G MB flank allografts” value [5]?
Its value is “resistant”.

And the “Gli1 mRNA / Gli transcript levels” value [6]?
Its value is “no significant change”.

`CNC1CCC(N(Cc2cccc(-c3ccncc3)c2)C(=O)c2sc3ccccc3c2Cl)CC1` (centres unmarked) [SAG] was tested. Which “Gli1 mRNA levels (effect of SMO agonist)” value [7] did it give?
Its value is “Increased”.
